Data set [1] deals with Quadruplex DNA. As to the kind of experiment: Binding affinity to c-Myc G-quadruplex DNA (unknown origin) assessed as red shift at 10 uM after 5 mins by UV-Visible absorbance titration method. It counts as nucleic-acid assay.
Data set [2] has as its system Quadruplex DNA. As to the kind of experiment: Binding affinity to c-Kit G-quadruplex DNA (unknown origin) assessed as red shift at 10 uM after 5 mins by UV-Visible absorbance titration method. The class given is nucleic-acid assay.
Data set [3] deals with Quadruplex DNA. Briefly: Binding affinity to Bcl2 G-quadruplex DNA (unknown origin) assessed as absorption maximum at 5 uM after 5 mins by fluorescence titration method (reference value: 453 nanometer). It counts as nucleic-acid assay.
Data set [4] has as its system Quadruplex DNA. As to the kind of experiment: Binding affinity to human telomeric G-quadruplex DNA assessed as emission maximum at 5 uM after 5 mins in presence of potassium ion by fluorescence titration method (reference value: 584 nanometer). The class given is nucleic-acid assay.
Data set [5] concerns Calf thymus DNA. Briefly: Binding affinity to calf thymus DNA assessed as hyperchromicity at 10 uM after 5 mins by UV-Visible absorbance titration method. Particulars: Bos taurus; call rule not given here. The class given is nucleic-acid assay.
In data set [6] the test system is Quadruplex DNA. As to the kind of experiment: Binding affinity to human telomeric G-quadruplex DNA assessed as red shift at 10 uM after 5 mins in presence of sodium ion by UV-Visible absorbance titration method. It counts as nucleic-acid assay.
Data set [7] deals with Quadruplex DNA. As to the kind of experiment: Binding affinity to human telomeric G-quadruplex DNA assessed as compound fluorescence life time at 5 uM after 5 mins in presence of potassium ion by fluorescence titration method (reference value: 0.192 nanoseconds). It counts as nucleic-acid assay.
Data set [8] deals with dsDNA. As to the kind of experiment: Binding affinity to 26-mer duplex DNA (unknown origin) assessed as red shift at 10 uM after 5 mins by UV-Visible absorbance titration method. The class given is nucleic-acid assay.
Data set [9] deals with Quadruplex DNA. As to the kind of experiment: Binding affinity to c-Myc G-quadruplex DNA (unknown origin) assessed as absorption maximum at 5 uM after 5 mins by fluorescence titration method (reference value: 453 nanometer). It counts as nucleic-acid assay.
Data set [10] has as its system Quadruplex DNA. As to the kind of experiment: Binding affinity to c-Kit G-quadruplex DNA (unknown origin) assessed as absorption maximum at 5 uM after 5 mins by fluorescence titration method (reference value: 453 nanometer). The class given is nucleic-acid assay.
Data set [11] deals with Quadruplex DNA. As to the kind of experiment: Binding affinity to human telomeric G-quadruplex DNA assessed as hyperchromicity at 10 uM after 5 mins in presence of sodium ion by UV-Visible absorbance titration method. It counts as nucleic-acid assay.
Data set [12] deals with Quadruplex DNA. Briefly: Binding affinity to Bcl2 G-quadruplex DNA (unknown origin) assessed as emission maximum at 5 uM after 5 mins by fluorescence titration method (reference value: 584 nanometer). The class given is nucleic-acid assay.
Data set [13] deals with Quadruplex DNA. As to the kind of experiment: Binding affinity to Bcl2 G-quadruplex DNA (unknown origin) assessed as red shift at 10 uM after 5 mins by UV-Visible absorbance titration method. The class given is nucleic-acid assay.
The test system of data set [14] is Quadruplex DNA. As to the kind of experiment: Binding affinity to human telomeric G-quadruplex DNA assessed as absorption maximum at 5 uM after 5 mins in presence of sodium ion by fluorescence titration method (reference value: 453 nanometer). It counts as nucleic-acid assay.
The subject of data set [15] is Quadruplex DNA. As to the kind of experiment: Binding affinity to human telomeric G-quadruplex DNA assessed as compound fluorescence life time at 5 uM after 5 mins in presence of sodium ion by fluorescence titration method (reference value: 0.192 nanoseconds). The class given is nucleic-acid assay.
Data set [16] concerns Quadruplex DNA. Briefly: Binding affinity to human telomeric G-quadruplex DNA assessed as absorption maximum at 5 uM after 5 mins in presence of potassium ion by fluorescence titration method (reference value: 405 nanometer). It counts as nucleic-acid assay.
In data set [17] the test system is Quadruplex DNA. As to the kind of experiment: Binding affinity to c-Myc G-quadruplex DNA (unknown origin) assessed as red shift at 15 uM after 5 mins by UV-Visible absorbance titration method. The class given is nucleic-acid assay.
Data set [18] deals with Quadruplex DNA. As to the kind of experiment: Binding affinity to human telomeric G-quadruplex DNA assessed as enhanced fluorescence time at 5 uM after 5 mins in presence of potassium ion by fluorescence titration assay relative to control. The class given is nucleic-acid assay.
Data set [19] can be described thus: Drug uptake in DNase-1 treated human HepG2 cell nucleus at 10 uM after 2.5 hrs by confocal microscopic method. The class given is ADME, subcellular. Particulars: hepg2, 2.5 h.
For data set [20], the system named is Quadruplex DNA. As to the kind of experiment: Binding affinity to Bcl2 G-quadruplex DNA (unknown origin) assessed as enhanced fluorescence ratio at 5 uM after 5 mins by fluorescence titration assay relative to control. It counts as nucleic-acid assay.
Data set [21] relates to Quadruplex DNA. As to the kind of experiment: Binding affinity to c-Kit G-quadruplex DNA (unknown origin) assessed as red shift at 15 uM after 5 mins by UV-Visible absorbance titration method. It counts as nucleic-acid assay.
Data set [22] can be described thus: Drug uptake in fixed human HepG2 cell nucleus at 10 uM after 2.5 hrs by confocal microscopic method. The class given is ADME, subcellular. Particulars: hepg2, 2.5 h.
The test system of data set [23] is Quadruplex DNA. As to the kind of experiment: Binding affinity to human telomeric G-quadruplex DNA assessed as hyperchromicity at 15 uM after 5 mins in presence of potassium ion by UV-Visible absorbance titration method. The class given is nucleic-acid assay.
In data set [24] the test system is Quadruplex DNA. As to the kind of experiment: Binding affinity to c-Kit G-quadruplex DNA (unknown origin) assessed as hyperchromicity at 15 uM after 5 mins by UV-Visible absorbance titration method. It counts as nucleic-acid assay.
The test system of data set [25] is Quadruplex DNA. As to the kind of experiment: Binding affinity to human telomeric G-quadruplex DNA assessed as enhanced fluorescence ratio at 5 uM after 5 mins in presence of sodium ion by fluorescence titration assay relative to control. The class given is nucleic-acid assay.
Data set [26] has as its system Quadruplex DNA. Briefly: Binding affinity to Bcl2 G-quadruplex DNA (unknown origin) assessed as absorption maximum at 5 uM after 5 mins by fluorescence titration method (reference value: 405 nanometer). It counts as nucleic-acid assay.
Data set [27] has as its system Calf thymus DNA. Briefly: Binding affinity to calf thymus DNA assessed as absorption maximum at 5 uM after 5 mins by fluorescence titration method (reference value: 405 nanometer). It counts as nucleic-acid assay. The conditions noted are these: Bos taurus.
Data set [28] concerns Quadruplex DNA. As to the kind of experiment: Binding affinity to c-Myc G-quadruplex DNA (unknown origin) assessed as absorption maximum at 5 uM after 5 mins by fluorescence titration method (reference value: 405 nanometer). The class given is nucleic-acid assay.
Data set [29] can be described thus: Drug uptake in RNase-A treated human HepG2 cell cytoplasm at 10 uM after 2.5 hrs by confocal microscopic method. The class given is ADME, subcellular. The conditions noted are these: hepg2, 2.5 h.
Data set [30] has as its system Quadruplex DNA. Briefly: Binding affinity to c-Kit G-quadruplex DNA (unknown origin) assessed as absorption maximum at 5 uM after 5 mins by fluorescence titration method (reference value: 405 nanometer). The class given is nucleic-acid assay.
For data set [31], the system named is Quadruplex DNA. Briefly: Binding affinity to c-Kit G-quadruplex DNA (unknown origin) assessed as enhanced fluorescence ratio at 5 uM after 5 mins by fluorescence titration assay relative to control. It counts as nucleic-acid assay.
Data set [32] has as its system dsDNA. Briefly: Binding affinity to 26-mer duplex DNA (unknown origin) assessed as emission maximum at 5 uM after 5 mins by fluorescence titration method (reference value: 559 nanometer). The class given is nucleic-acid assay.
The subject of data set [33] is dsDNA. Briefly: Binding affinity to 26-mer duplex DNA (unknown origin) assessed as absorption maximum at 5 uM after 5 mins by fluorescence titration method (reference value: 405 nanometer). It counts as nucleic-acid assay.
For data set [34], the system named is dsDNA. As to the kind of experiment: Binding affinity to 26-mer duplex DNA (unknown origin) assessed as enhanced fluorescence ratio at 5 uM after 5 mins in presence of sodium ion by fluorescence titration assay relative to control. The class given is nucleic-acid assay.
Data set [35] is described as follows: Drug uptake in RNase-A treated human HepG2 cell nucleus at 10 uM after 2.5 hrs by confocal microscopic method. The class given is ADME, subcellular. Particulars: hepg2, 2.5 h.
Data set [36] concerns Quadruplex DNA. Briefly: Binding affinity to human telomeric G-quadruplex DNA assessed as red shift at 15 uM after 5 mins in presence of sodium ion by UV-Visible absorbance titration method. The class given is nucleic-acid assay.
The test system of data set [37] is Quadruplex DNA. Briefly: Binding affinity to Bcl2 G-quadruplex DNA (unknown origin) assessed as enhanced fluorescence time at 5 uM after 5 mins by fluorescence titration assay relative to control. The class given is nucleic-acid assay.
For data set [38], the system named is dsDNA. As to the kind of experiment: Binding affinity to 26-mer duplex DNA (unknown origin) assessed as hyperchromicity at 15 uM after 5 mins by UV-Visible absorbance titration method. It counts as nucleic-acid assay.
Data set [39] has as its system Quadruplex DNA. Briefly: Binding affinity to c-Myc G-quadruplex DNA (unknown origin) assessed as hyperchromicity at 15 uM after 5 mins by UV-Visible absorbance titration method. It counts as nucleic-acid assay.

The structures appear in SMILES notation. Bounds are passed on as bounds.

As for `CCn1c2ccccc2c2cc(/C=C/c3sc4ccccc4[n+]3CC)ccc21.[I-]`, the Activity with Quadruplex DNA [1] came out at 53 nm; with Quadruplex DNA [2], 40 nm; with Quadruplex DNA [3], 500 nm; in the data set on Quadruplex DNA [4] it was 579 nm; with Calf thymus DNA [5] it was 40.1%; in the data set on Quadruplex DNA [6], 24 nm. Moreover, the Activity in the data set on dsDNA [8] is 17 nm; with Quadruplex DNA [9], 506 nm; with Quadruplex DNA [10], 493 nm; in the data set on Quadruplex DNA [11] it was 48.4%; in the data set on Quadruplex DNA [12] it was 586 nm; in the data set on Quadruplex DNA [13] it was 47 nm. For the same molecule, the Activity in the data set with Quadruplex DNA [14] was 477 nm. The Time was 2.09 nanoseconds in the data set with Quadruplex DNA [7] and 2.15 nanoseconds with Quadruplex DNA [15].
Take `CCn1c2ccccc2c2cc(/C=C(\C#N)c3ccc[n+](C)c3)ccc21.[I-]`: the Activity turned out to be 428 nm in the data set with Quadruplex DNA [16]; 25 nm in the data set on Quadruplex DNA [17]; 27 nm with Quadruplex DNA [21]; 41.2% in the data set with Quadruplex DNA [23]; 39.9% in the data set with Quadruplex DNA [24]; 434 nm in the data set with Quadruplex DNA [26]. The Activity in the data set on Calf thymus DNA [27] was 428 nm; in the data set with Quadruplex DNA [28], 430 nm; with Quadruplex DNA [30], 432 nm; in the data set with dsDNA [32] it was 541 nm; with dsDNA [33], 422 nm; with Quadruplex DNA [36] it was 17 nm. Also, the values for the Activity with dsDNA [38] and in the data set with Quadruplex DNA [39] were 27.7% and 41.7%, respectively. Also, the fold change (FC) in the data set with Quadruplex DNA [18] and in the data set on Quadruplex DNA [37] was 11.2 to 20.6 in each case. The Drug uptake entry was “Not Active” in data set [19], “Active” in data set [22], “Not Active” in data set [29] and “Active” in data set [35]. Further, the Ratio in the data set on Quadruplex DNA [20], in the data set with Quadruplex DNA [25], in the data set on Quadruplex DNA [31] and in the data set with dsDNA [34] was over 6 in each case.

For the origin of these results see ChEMBL document CHEMBL4184182, “Studies on interactions of carbazole derivatives with DNA, cell image, and cytotoxicity” (Bioorg Med Chem, 2018).
